According to patent US4345938A, “Herbicidal 2-haloacetanilides” (Monsanto Company, priority 1980, dated 1982):
Read-outs that look alike come from different tables or passages of the source.

Assays:
Format in all cases: in vivo
Eleocharis kuroguwai [1] = assay: Field transplant rice test, applied 0 DAT, EK; details: 0 h, read-out: Percent Inhibition, EK; for inhibition at 375 g/ha: 0.375 Kg/Ha; for inhibition at 750 g/ha: 0.75 Kg/Ha; for inhibition at 1500 g/ha: 1.5 Kg/Ha; for inhibition at 3000 g/ha: 3.0 Kg/Ha
Protocol: (§1) The test data in Table III for all compounds was obtained under identical test conditions. The weeds used in the tests herein have the following abbreviations in the tables: Echinochloa crus-galli (EC), Monochloria vaginalis (MV), Cyperus Serotinus (CS), Eleocharis Kuroguwai (EK) and Sagittaria trifolia (ST).
(§2) In further comparative tests, a preferred compound of this invention (Example 1) was tested in the field with prior art Compounds A-D. These tests were conducted under conditions reflecting herbicide application times generally favorable to all herbicides in the test. The timing of application of herbicides to transplant rice is very important, whether, as in some instances, prior to transplanting the rice; in other instances, at the time of transplanting or else after transplanting. Application times are conventionally referred to as "days before transplant" (DBT) or "days after transplant" ("DAT"). The field test data in Table IV was obtained from a test in which the herbicides were applied at the time of transplant, i.e., "0 DAT", with observations being made weekly up to six weeks after transplant ("WAT") beginning at two weeks after transplant; for illustrative and representative purposes, only the early, middle and late period observations, i.e., 2 WAT, 4 WAT and 6 WAT, are shown in Table IV. The data in Table IV is for rates of application common to all herbicides in the test, i.e., from 3.0 kg/ha (2.67 lb/A) down to 0.375 kg/ha (0.34 lb/A). All herbicides were applied at their actual or expected use rates, i.e., as granules containing 2.5% by weight herbicide for the compound of Example 1, Compounds B, C and D and 5.0% by weight for Compound A.

Cyperus serotinus = assay: Field transplant rice test, applied 9 DAT, CS; details: for inhibition at 375 g/ha / inhibition at 750 g/ha / inhibition at 1500 g/ha / inhibition at 3000 g/ha: Cyperus serotinus, 216 h, read-out: Percent Inhibition, CS; for inhibition at 375 g/ha: 0.375 Kg/Ha; for inhibition at 750 g/ha: 0.75 Kg/Ha; for inhibition at 1500 g/ha: 1.5 Kg/Ha; for inhibition at 3000 g/ha: 3.0 Kg/Ha
Description: (§3) In the discussion of data below, occasional reference is made to herbicide application rates symbolized as "GR15 " and "GR85 "; these rates are given in kilograms per hectare (kg/ha) which are convertible into pounds per acre (lbs/A) by dividing the kg/ha rate by 1.12.
(§4) A further guide to the effectiveness of a chemical as a selective herbicide is the "selectivity factor" ("SF") for a herbicide in given crops and weeds. The selectivity factor is a measure of the relative degree of crop safety and weed injury and is expressed in terms of the GR15 /GR85 ratio, i.e., the GR15 rate for the crop divided by the GR85 rate for the weed, both rates in kg/ha (lb/A.)
as §1, §2
(§5) In Table V are presented field data showing the relative performance of the compound of Example 1 and Compounds A-D applied 9 DAT, with observations being made weekly from 3 WAT to 7 WAT; again, for illustrative and representative purposes, only the early, middle and late period observations are reported in Table V, the herbicide rates and concentrations of active ingredients the same as is shown in Table IV.

Monochoria vaginalis = assay: Field transplant rice test, applied 9 DAT, MV; details: for inhibition at 375 g/ha / inhibition at 750 g/ha / inhibition at 1500 g/ha / inhibition at 3000 g/ha: Pontederia vaginalis, 216 h, read-out: Percent Inhibition, MV; for inhibition at 375 g/ha: 0.375 Kg/Ha; for inhibition at 750 g/ha: 0.75 Kg/Ha; for inhibition at 1500 g/ha: 1.5 Kg/Ha; for inhibition at 3000 g/ha: 3.0 Kg/Ha
Description: as §3, §4, §1, §2, §5

Eleocharis kuroguwai [2] = assay: Field transplant rice test, applied 9 DAT, EK; details: for inhibition at 375 g/ha / inhibition at 750 g/ha / inhibition at 1500 g/ha / inhibition at 3000 g/ha: Eleocharis kuroguwai, 216 h, read-out: Percent Inhibition, EK; for inhibition at 375 g/ha: 0.375 Kg/Ha; for inhibition at 750 g/ha: 0.75 Kg/Ha; for inhibition at 1500 g/ha: 1.5 Kg/Ha; for inhibition at 3000 g/ha: 3.0 Kg/Ha
Description: as §3, §4, §1, §2, §5

Echinochloa crus-galli = assay: Field transplant rice test, applied 9 DAT, EC; details: for inhibition at 375 g/ha / inhibition at 750 g/ha / inhibition at 1500 g/ha / inhibition at 3000 g/ha: Echinochloa crus-galli, 216 h, read-out: Percent Inhibition, EC; for inhibition at 375 g/ha: 0.375 Kg/Ha; for inhibition at 750 g/ha: 0.75 Kg/Ha; for inhibition at 1500 g/ha: 1.5 Kg/Ha; for inhibition at 3000 g/ha: 3.0 Kg/Ha
Description: as §3, §4, §1, §2, §5

CCCCOCCN(C(=O)CCl)c1c(CC)cccc1CC [Compound B, 2',6'-diethyl-N-(n-butoxyethyl)-2-chloroacetanilide]
inhibition at 375 g/ha (Eleocharis kuroguwai [1]; 2 WAT): 48%
inhibition at 375 g/ha (Eleocharis kuroguwai [1]; 4 WAT): 37%
inhibition at 375 g/ha (Eleocharis kuroguwai [1]; 6 WAT): 7%
inhibition at 750 g/ha (Eleocharis kuroguwai [1]; 2 WAT): 63%
inhibition at 750 g/ha (Eleocharis kuroguwai [1]; 4 WAT): 42%
inhibition at 750 g/ha (Eleocharis kuroguwai [1]; 6 WAT): 0%
inhibition at 1500 g/ha (Eleocharis kuroguwai [1]; 2 WAT): 73%
inhibition at 1500 g/ha (Eleocharis kuroguwai [1]; 4 WAT): 65%
inhibition at 1500 g/ha (Eleocharis kuroguwai [1]; 6 WAT): 17%
inhibition at 3000 g/ha (Eleocharis kuroguwai [1]; 2 WAT): 100%
inhibition at 3000 g/ha (Eleocharis kuroguwai [1]; 4 WAT): 94%
inhibition at 3000 g/ha (Eleocharis kuroguwai [1]; 6 WAT): 72%
inhibition at 375 g/ha (Cyperus serotinus; 3 WAT): 93%
inhibition at 375 g/ha (Cyperus serotinus; 5 WAT): 100%
inhibition at 375 g/ha (Cyperus serotinus; 7 WAT): 77%
inhibition at 750 g/ha (Cyperus serotinus; 3 WAT): 78%
inhibition at 750 g/ha (Cyperus serotinus; 5 WAT): 67%
inhibition at 750 g/ha (Cyperus serotinus; 7 WAT): 67%
inhibition at 1500 g/ha (Cyperus serotinus; 3 WAT): 87%
inhibition at 1500 g/ha (Cyperus serotinus; 5 WAT): 85%
inhibition at 1500 g/ha (Cyperus serotinus; 7 WAT): 67%
inhibition at 3000 g/ha (Cyperus serotinus; 3 WAT): 75%
inhibition at 3000 g/ha (Cyperus serotinus; 5 WAT): 72%
inhibition at 3000 g/ha (Cyperus serotinus; 7 WAT): 65%
selectivity factor (GR15/GR85), CS in transplant rice (Cyperus serotinus; between 3 WAT and 7 WAT): 1
inhibition at 375 g/ha (Monochoria vaginalis; 3 WAT): 100%
inhibition at 375 g/ha (Monochoria vaginalis; 5 WAT): 95%
inhibition at 375 g/ha (Monochoria vaginalis; 7 WAT): 77%
inhibition at 750 g/ha (Monochoria vaginalis; 3 WAT): 97%
inhibition at 750 g/ha (Monochoria vaginalis; 5 WAT): 98%
inhibition at 750 g/ha (Monochoria vaginalis; 7 WAT): 88%
inhibition at 1500 g/ha (Monochoria vaginalis; 3 WAT): 98%
inhibition at 1500 g/ha (Monochoria vaginalis; 5 WAT): 100%
inhibition at 1500 g/ha (Monochoria vaginalis; 7 WAT): 100%
inhibition at 3000 g/ha (Monochoria vaginalis; 3 WAT): 100%
inhibition at 3000 g/ha (Monochoria vaginalis; 5 WAT): 100%
inhibition at 3000 g/ha (Monochoria vaginalis; 7 WAT): 97%
selectivity factor (GR15/GR85), MV in transplant rice (Monochoria vaginalis; between 3 WAT and 7 WAT): 8
selectivity factor (GR15/GR85), EK in transplant rice (Eleocharis kuroguwai [2]; 3 WAT): non-selective
inhibition at 375 g/ha (Eleocharis kuroguwai [2]; 3 WAT): 27%
inhibition at 375 g/ha (Eleocharis kuroguwai [2]; 5 WAT): 3%
inhibition at 375 g/ha (Eleocharis kuroguwai [2]; 7 WAT): 0%
inhibition at 750 g/ha (Eleocharis kuroguwai [2]; 3 WAT): 28%
inhibition at 750 g/ha (Eleocharis kuroguwai [2]; 5 WAT): 5%
inhibition at 750 g/ha (Eleocharis kuroguwai [2]; 7 WAT): 0%
inhibition at 1500 g/ha (Eleocharis kuroguwai [2]; 3 WAT): 42%
inhibition at 1500 g/ha (Eleocharis kuroguwai [2]; 5 WAT): 32%
inhibition at 1500 g/ha (Eleocharis kuroguwai [2]; 7 WAT): 0%
inhibition at 3000 g/ha (Eleocharis kuroguwai [2]; 3 WAT): 55%
inhibition at 3000 g/ha (Eleocharis kuroguwai [2]; 5 WAT): 43%
inhibition at 3000 g/ha (Eleocharis kuroguwai [2]; 7 WAT): 18%
inhibition at 375 g/ha (Echinochloa crus-galli; 3 WAT): 57%
inhibition at 375 g/ha (Echinochloa crus-galli; 5 WAT): 55%
inhibition at 375 g/ha (Echinochloa crus-galli; 7 WAT): 47%
inhibition at 750 g/ha (Echinochloa crus-galli; 3 WAT): 68%
inhibition at 750 g/ha (Echinochloa crus-galli; 5 WAT): 53%
inhibition at 750 g/ha (Echinochloa crus-galli; 7 WAT): 50%
inhibition at 1500 g/ha (Echinochloa crus-galli; 3 WAT): 90%
inhibition at 1500 g/ha (Echinochloa crus-galli; 5 WAT): 80%
inhibition at 1500 g/ha (Echinochloa crus-galli; 7 WAT): 85%
inhibition at 3000 g/ha (Echinochloa crus-galli; 3 WAT): 95%
inhibition at 3000 g/ha (Echinochloa crus-galli; 5 WAT): 95%
inhibition at 3000 g/ha (Echinochloa crus-galli; 7 WAT): 92%
selectivity factor (GR15/GR85), EC in transplant rice (Echinochloa crus-galli; between 3 WAT and 7 WAT): 2
